Columns and labels:
Type in all cases: in vivo
Ctenocephalides felis [1] = assay: Ctenocephalides felis oral test (CTECFE Oral); conditions: 48 h, read-out: activity (mortality)
How it was run: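 About 20 unfed adult cat fleas fed through parafilm on cattle blood containing compound (DMSO concentrate diluted in blood to the desired concentration). Blood held at 37 °C, fleas at room temperature. Mortality (%) scored after 2 days.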

Rhipicephalus microplus [2] = assay: Rhipicephalus (Boophilus) microplus in-vitro contact test, larval cattle tick, strain Parkhurst (BOOPMI Cont); conditions: application rate 5 μg/cm^2 (=500 g/ha), tick larvae, after 48 hours, read-out: activity (efficacy: 100% means all larvae are dead or moribund)
How it was run: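 Acetone solutions dried onto glass tube walls (900 ppm giving 5 μg/cm^2); 20-50 pyrethroid-resistant Parkhurst larvae added per tube and held 48 h at 27° C., 85% relative humidity. Efficacy scored by negative geotaxis as % dead or moribund larvae.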

Diabrotica balteata = Diabrotica balteata spray test; conditions: 168 h, wheat seeds, larvae, after 7 days, read-out: activity (efficacy: 100% means all seedlings have grown up like in the untreated, uninfected control); for pest or weed control at 32 µg/disc, 100 g/ha: application rate 100 g/ha (=32 μg/well); for pest or weed control at 160 µg/disc, 500 g/ha: application rate 500 g/ha (=160 μg/well)
How it was run: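 Wheat seedlings, germinated 1 day on agar, were sprayed with compound in acetone/DMF diluted in water containing emulsifier, then infested with 10-20 Diabrotica balteata larvae. After 7 days efficacy in % was scored: 100% means seedlings grew like the untreated, uninfected control; 0% means none grew.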

Meloidogyne incognita = Meloidogyne incognita test; conditions: application rate 20 ppm, salad seedlings, after 14 days
Method: Meloidogyne incognita—Test Solvent: 125.0 parts by weight of acetone
To produce a suitable preparation of active compound, 1 part by weight of active compound is mixed with the stated amount of solvent, and the concentrate is diluted with water to the desired concentration.
Vessels are filled with sand, a solution of the active ingredient, a suspension containing eggs and larvae of the southern root-knot nematode (Meloidogyne incognita) and salad seeds. The salad seeds germinate and the seedlings grow. Galls develop in the roots.
After 14 days the nematicidal activity is determined based on the percentage of gall formation. 100% means no galls were found and 0% means the number of galls found on the roots of the treated plants was equal to that in untreated control plants.

Rhipicephalus microplus [3] = assay: Rhipicephalus (Boophilus) microplus injection test (BOOPMI Inj); conditions: 168 h, injection into adult engorged female ticks, egg deposition after 7 days, read-out: activity (efficacy: 100% means all eggs are infertile); for pest or weed control at 0.02 mg: application rate 20 μg/tick; for pest or weed control at 0.004 mg: application rate 4 μg/tick
How it was run: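 Five engorged adult female R. microplus ticks injected into the abdomen with 1 μL of compound diluted in DMSO, then kept in a climate chamber. Fertile egg deposition checked after 7 days; eggs without visible fertility held until hatching at about 42 days. Efficacy: 100% = all eggs infertile, 0% = all fertile.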

Spodoptera frugiperda = Spodoptera frugiperda spray test; conditions: in Zea mays, 168 h, read-out: activity (mortality)
How it was run: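 Maize leaf sections were sprayed with compound formulated in acetone/DMF and diluted in water containing 1000 ppm emulsifier. Dried leaves were infested with fall armyworm larvae, and percent mortality was scored after 7 days.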

Rhipicephalus sanguineus = Rhipicephalus sanguineus in-vitro contact test, adult brown dog ticks (RHIPSA Cont); conditions: 48 h, after 48 hours, read-out: activity (efficacy: 100% means all ticks are dead or moribund); for pest or weed control at 1 µg/cm2, 100 g/ha: application rate 1 μg/cm^2 (=100 g/ha); for pest or weed control at 5 µg/cm2, 500 g/ha: application rate 5 μg/cm^2 (=500 g/ha)
How it was run: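 Mortality of adult R. sanguineus was judged 48 h after contact with acetone-applied residues on glass tube walls. Ticks that stayed immotile or moved without coordination when heated to 45–50 °C (max 5 min) counted as dead or moribund.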

[4] = test system: Aedes aegypti strain MONHEIM; assay: Aedes aegypti test (AEDSAE surface treatment & contact assay); conditions: exposure 30 minutes, 24 hours after contact, read-out: efficacy (mortality); for mortality at 20 mg/m2: surface concentration 20 mg/m^2, glazed tile; for mortality at 4 mg/m2: surface concentration 4 mg/m^2, glazed tile
How it was run: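 Compound dissolved in acetone (2 mg/ml) with 2000 ppm rapeseed oil methyl ester, pipetted onto glazed tile and dried. Adult mosquitoes exposed on the surface for 30 min; percent mortality scored 24 h after contact.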

[5] = test system: Musca domestica strain WHO—N; assay: Musca domestica test (MUSCDO surface treatment & contact assay); conditions: surface concentration 20 mg/m^2, glazed tile, exposure 30 minutes, 24 hours after contact, read-out: efficacy (mortality)
How it was run: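 Compound dissolved in acetone (2 mg/ml) with 2000 ppm rapeseed oil methyl ester and pipetted onto glazed tile; after acetone evaporation, adult flies exposed to dried surface for 30 minutes. Mortality (%) scored 24 hours after contact.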

Myzus persicae [6] = assay: Myzus persicae oral test; conditions: 120 h, read-out: activity (mortality)
How it was run: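 Percent mortality was recorded at day 5, where 0% means no aphids killed. Compound prepared from an acetone concentrate diluted in water and combined with IPL41 medium containing sugar was offered to mixed-stage green peach aphids, which sucked it through a parafilm seal.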

Ctenocephalides felis [7] = assay: Ctenocephalides felis in-vitro contact test, adult cat flea (CTECFE Cont); conditions: application rate 5 μg/cm^2 (=500 g/ha), adult cat fleas, after 48 hours, read-out: activity (efficacy: 100% means all fleas are dead or moribund)
How it was run: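 Acetone solutions coated on glass tube inner walls (900 ppm giving 5 μg/cm^2), then 5-10 adult fleas added and held 48 h at room temperature. Fleas unable to escape a 45-50° C. heating plate within 5 min scored dead or moribund; efficacy = % dead/moribund.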

Tetranychus urticae = Tetranychus urticae spray test, OP-resistant; conditions: foliar, 144 h, application rate 500 g/ha, French bean leaf disks, after 6 days
Method: Tetranychus urticae—Spray Test OP-Resistant Solvent: 78.0 parts by weight acetone • 1.5 parts by weight dimethylformamide Emulsifier: alkylarylpolyglycol ether
To produce a suitable preparation of active compound, 1 part by weight of active compound is mixed with the stated amount of solvents and is diluted with water, containing an emulsifier concentration of 1000 ppm, to the desired concentration. Further test concentrations are prepared by dilution with emulsifier containing water.
French bean (Phaseolus vulgaris) leaf disks infected with all instars of the two spotted spidermite (Tetranychus urticae), are sprayed with a preparation of the active ingredient of the desired concentration.
After 6 days mortality in % is determined. 100% means all spider mites have been killed and 0% means none of the spider mites have been killed.

[8] = test system: Blattella germanica strain PAULINIA; assay: Blattella germanica test (BLTTGE surface treatment & contact assay); conditions: surface concentration 20 mg/m^2, glazed tile, exposure 30 minutes, 24 hours after contact, read-out: efficacy (mortality)
Method: Blattella germanica Test (BLTTGE Surface Treatment & Contact Assay) Solvent: Aceton+2000 ppm rapeseed oil methyl ester (RME)
In order to produce a sufficient, active ingredient containing solution it is necessary to solve the test compound in the solvent-mix (acetone at 2 mg/ml/RME 2000 ppm). This solution is pipetted onto a glazed tile and after evaporation of the acetone, adult animals of the species Blattella germanica strain […] are placed onto the dried surface. The exposure time is 30 minutes. Mortality in percent (%) is determined 24 hours after contact of the insects to the treated surface. 100% mortality means that all tested insects are dead, whereas 0% means that no insect died.

[9] = test system: Anopheles funestus strain FUMOZ-R; assay: Anopheles funestus test (ANPHFU surface treatment & contact assay); conditions: surface concentration 20 mg/m^2, glazed tile, exposure 30 minutes, 24 hours after contact, read-out: efficacy (mortality)
Method: Anopheles funestus Test (ANPHFU Surface Treatment & Contact Assay) Solvent: Aceton+2000 ppm rapeseed oil methyl ester (RME)
In order to produce a sufficient, active ingredient containing solution it is necessary to solve the test compound in the solvent-mix (acetone at 2 mg/ml/RME 2000 ppm). This solution is pipetted onto a glazed tile and after evaporation of the acetone, adult mosquitoes of the species Anopheles funestus strain FUMOZ-R (Hunt et al., Med. Vet. Entomol. 2005 September; 19(3): 271-275) are placed onto the dried surface. The exposure time is 30 minutes. Mortality in percent (%) is determined 24 hours after contact of the insects to the treated surface. 100% mortality means that all tested insects are dead, whereas 0% means that no insect died.

Myzus persicae [10] = assay: Myzus persicae spray test; conditions: in Brassica rapa, foliar, 120 h, read-out: activity (mortality), application rate 100 g/ha, spray, Chinese cabbage leaf disks, after 5 days
How it was run: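 Compound in acetone/DMF solvent diluted in water with 1000 ppm alkylarylpolyglycol ether emulsifier, sprayed onto Chinese cabbage leaf disks infested with all instars of Myzus persicae. Mortality (%) scored after 5 days.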

CCOc1nc([C@H](C)NC(=O)c2cc(Cl)cc(C(F)(F)F)c2)n(-c2ccc(C#N)cn2)n1 [I-12]
90%: mortality at 100 ppm (Ctenocephalides felis [1]) | nematicidal activity (100% means no galls were found) (Meloidogyne incognita)
100%: pest or weed control at 5 µg/cm2 (Rhipicephalus microplus [2]) | pest or weed control at 32 µg/disc, 100 g/ha (Diabrotica balteata) | pest or weed control at 160 µg/disc, 500 g/ha (Diabrotica balteata) | pest or weed control at 0.02 mg (Rhipicephalus microplus [3]) | mortality at 100 g/ha (Spodoptera frugiperda) | mortality at 500 g/ha (Spodoptera frugiperda)

CCOc1nc([C@H](C)NC(=O)c2cc(C(F)(F)F)cc(C(F)(F)F)c2)n(-c2ccc(C#N)cn2)n1 [I-13]
100%: mortality at 100 ppm (Ctenocephalides felis [1]) | pest or weed control at 5 µg/cm2 (Rhipicephalus microplus [2]) | pest or weed control at 32 µg/disc, 100 g/ha (Diabrotica balteata) | pest or weed control at 160 µg/disc, 500 g/ha (Diabrotica balteata) | pest or weed control at 0.004 mg (Rhipicephalus microplus [3]) | pest or weed control at 0.02 mg (Rhipicephalus microplus [3]) | mortality at 100 g/ha (Spodoptera frugiperda) | mortality at 500 g/ha (Spodoptera frugiperda)
90%: nematicidal activity (100% means no galls were found) (Meloidogyne incognita)

CCOc1nc([C@H](C)NC(=O)c2cc(Cl)cc(Cl)c2)n(-c2ccc(C#N)cn2)n1 [I-14]
100%: pest or weed control at 5 µg/cm2 (Rhipicephalus microplus [2]) | pest or weed control at 32 µg/disc, 100 g/ha (Diabrotica balteata) | pest or weed control at 160 µg/disc, 500 g/ha (Diabrotica balteata) | nematicidal activity (100% means no galls were found) (Meloidogyne incognita) | pest or weed control at 0.004 mg (Rhipicephalus microplus [3]) | pest or weed control at 0.02 mg (Rhipicephalus microplus [3]) | mortality at 500 g/ha (Spodoptera frugiperda)
83%: mortality at 100 g/ha (Spodoptera frugiperda)

CC(C)c1nc([C@H](C)NC(=O)c2cc(Cl)cc(Br)c2)n(-c2ccc(C#N)cn2)n1 [I-19]
90%: nematicidal activity (100% means no galls were found) (Meloidogyne incognita)
100%: mortality at 100 ppm (Ctenocephalides felis [1]) | pest or weed control at 5 µg/cm2 (Rhipicephalus microplus [2]) | pest or weed control at 1 µg/cm2, 100 g/ha (Rhipicephalus sanguineus) | pest or weed control at 5 µg/cm2, 500 g/ha (Rhipicephalus sanguineus) | pest or weed control at 32 µg/disc, 100 g/ha (Diabrotica balteata) | pest or weed control at 0.004 mg (Rhipicephalus microplus [3]) | pest or weed control at 0.02 mg (Rhipicephalus microplus [3]) | mortality at 100 g/ha (Spodoptera frugiperda)
80 to 100%: mortality at 20 mg/m2 [4]

CC(C)c1nc([C@H](C)NC(=O)c2cccc(Br)n2)n(-c2ccc(C#N)cn2)n1 [I-23]
100%: pest or weed control at 0.02 mg (Rhipicephalus microplus [3])
90%: nematicidal activity (100% means no galls were found) (Meloidogyne incognita)
80%: pest or weed control at 5 µg/cm2, 500 g/ha (Rhipicephalus sanguineus) | pest or weed control at 0.004 mg (Rhipicephalus microplus [3])

C[C@H](NC(=O)c1cc(Cl)cc(C(F)(F)F)c1)c1ncnn1-c1cc([N+](=O)[O-])ccn1 [II-24]
80%: pest or weed control at 1 µg/cm2, 100 g/ha (Rhipicephalus sanguineus) | pest or weed control at 160 µg/disc, 500 g/ha (Diabrotica balteata) | pest or weed control at 0.004 mg (Rhipicephalus microplus [3])
100%: pest or weed control at 5 µg/cm2 (Rhipicephalus microplus [2]) | nematicidal activity (100% means no galls were found) (Meloidogyne incognita) | pest or weed control at 0.02 mg (Rhipicephalus microplus [3]) | mortality at 500 g/ha (Spodoptera frugiperda)

C[C@H](NC(=O)c1cc(Cl)cc(OC(F)(F)F)c1)c1ncnn1-c1cc(NC(=O)C2CC2)ccn1 [II-25]
90%: nematicidal activity (100% means no galls were found) (Meloidogyne incognita)
100%: pest or weed control at 5 µg/cm2 (Rhipicephalus microplus [2]) | mortality at 4 ppm (Myzus persicae [6]) | pest or weed control at 0.004 mg (Rhipicephalus microplus [3]) | pest or weed control at 0.02 mg (Rhipicephalus microplus [3]) | mortality at 100 g/ha (Spodoptera frugiperda) | mortality at 500 g/ha (Spodoptera frugiperda)
80 to 100%: mortality at 20 mg/m2 [5] | mortality at 4 mg/m2 [4] | mortality at 20 mg/m2 [4]
80%: pest or weed control at 5 µg/cm2, 500 g/ha (Rhipicephalus sanguineus) | pest or weed control at 160 µg/disc, 500 g/ha (Diabrotica balteata)

CC(=O)N(C)c1ccc(-n2ncnc2[C@H](C)NC(=O)c2cc(Cl)cc(C(F)(F)F)c2)nc1 [II-80]
80 to 100%: mortality at 20 mg/m2 [8] | mortality at 4 mg/m2 [4] | mortality at 20 mg/m2 [4] | mortality at 20 mg/m2 [9]
100%: mortality at 100 ppm (Ctenocephalides felis [1]) | pest or weed control at 5 µg/cm2 (Ctenocephalides felis [7]) | pest or weed control at 5 µg/cm2 (Rhipicephalus microplus [2]) | mortality at 0.8 ppm (Myzus persicae [6])
90%: mortality at 500 g/ha (Tetranychus urticae) | mortality at 100 g/ha (Myzus persicae [10])
80%: pest or weed control at 0.004 mg (Rhipicephalus microplus [3])
